For one data set, the system named is human skin explants. The data set is described as follows: Ex vivo human skin assay, dermal thickness. Format: cell-based. The procedure:
Ex vivo human skin assays. Human abdominal skin was obtained from corrective plastic surgery. As previously described (Yasuoka et al., The Open Rheumatol J 2008; 2:17-22), subcutaneous fat tissue was removed uniformly and skin tissue was cut into 1.5 cm×1.5 cm sections. The following were injected intradermally in a total volume of 100 μl 1×PBS: rE alone (1-10 μg/ml), endostatin peptides alone (10 μg/ml), rE or endostatin peptides (1-20 μg/ml) in combination with TGF-β (10 ng/ml), and TGF-β alone (10 ng/ml). In some experiments, human skin was first injected with TGF-β for 48 h followed by recombinant endostatin (rE) administration in the same injection site as TGF-β. Explants containing complete epidermal and dermal layers were cultured in an air liquid interface with the epidermal and keratin layers side up and exposed to air. The culture medium was replaced every other day. After 1 or 2 weeks, skin tissue corresponding to an area with 8-mm diameter centered around the injection site was harvested using disposable 8-mm ACUPUNCH® (Acuderm, Inc., Lauderdale, FL). Skin tissue was fixed in 10% formalin prior to embedding in paraffin.
(§1) Measurement of Skin Dermal Thickness. Six μm sections of paraffin-embedded human and mouse skin tissues were stained with hematoxylin and eosin (H&E). In some experiments, sections were stained with Masson trichrome which identifies collagens. Images were taken on a Nikon Eclipse 800 microscope. The thickness of the dermis was measured in 6 random fields of each section using the image/J® software. Data are shown in arbitrary units.

Data set [1] concerns TGF-β-induced dermal fibrosis in mouse skin. The conditions noted are these: single dose concurrently with TGF-β; cited from earlier work.
The test system is the same in data set [2]. The data set is described as follows: In vivo TGF-β-induced dermal fibrosis in mouse skin. Particulars: 10 μg/ml intradermal with TGF-β 10 ng/ml; one week. The procedure: In Vivo Mouse Experiments. CB57BL6/J male mice were purchased from The Jackson Laboratory (Bar Harbor, ME). Human rE (10 μg/ml) or Endostatin peptides (10 μg/ml) in combination with TGF-β (10 ng/ml), or TGF-β alone were injected intradermally on the back of mice in a total volume of 100 μl 1×PBS. Mice were injected in two different skin sites and sacrificed one week post-injection. Skin surrounding the injection site was harvested and fixed in 10% formalin prior to embedding in paraffin.
as §1
E4, a peptide representing the carboxy terminus of human endostatin, can attenuate fibrosis triggered by multiple fibrogenic factors. The anti-fibrotic effects of E4 can be detected whether administered concomitantly with or following the fibrogenic trigger. The efficacy of E4 was confirmed in […] pre-clinical models of fibrosis: a) bleomycin-induced dermal fibrosis in vivo in mouse skin, b) TGF-β induced dermal fibrosis in mouse skin, and c) bleomycin-induced pulmonary fibrosis. E4 peptide or a control peptide (E1; representing the amino terminal region of endostatin) were administered at the same time as TGF-β or bleomycin or 3-4 days following TGF-β or bleomycin. Mice were sacrificed one and two weeks after TGF-β-initiation of dermal fibrosis, and two and three weeks after bleomycin-induced pulmonary fibrosis. Two different modes of administration of the E4 peptide were also tested. It was confirmed that intraperitoneal and intratracheal administration was effective. The amount of E4 that was administered was 10 μg/ml in a total volume of 100 μl for skin and IP injections and 50 μl for IT administration.
For these studies, fibrosis was assessed by measurement of dermal thickness on H&E skin sections (skin), assessment of collagen levels by Masson Trichrome staining (skin and lung), and measurement of collagen levels by Sircol assay (lung). Furthermore, to confirm the mechanism by which E4 exerts its anti-fibrotic effects, the production of extra-cellular matrix (ECM) components, the levels of enzymes that promote matrix stabilization and thus accumulation and levels of those that degrade ECM components, and levels of transcription factors downstream of the pro-fibrotic triggers were evaluated. Results were assessed using the unpaired t test and the 3-way ANOVA (for the ID1 data).

For data set [3], the system named is human primary lung fibroblasts. The conditions noted are these: adenovirally-expressed endostatin; fibroblasts pretreated with TGF-β; cited from earlier work.
Data set [4] concerns diabetes/renal fibrosis model. Particulars: rat, in vivo; cited from earlier work.
The test system of a further data set is rabbit ear scar model. Particulars: in vivo; cited from earlier work.
A further data set relates to liver fibrosis model. The conditions noted are these: mouse, in vivo; cited from earlier work.
The test system of data set [5] is patients with advanced solid tumors. Particulars: daily 1-hour intravenous infusion at doses up to 300 mg/m2; cited from earlier work.
For another data set, the system named is IPF model. Particulars: rat, in vivo; cited from earlier work.

“E3: synthetic peptide, SEQ ID NO: 20, amino acids 133-180 of human endostatin (SYCETWRTEAPSATGQASSLLGGRLLGQSAASCHHAYIVLCIENSFMT; E3 amino acid sequence)”: the “dermal thickness, baseline effect” value in the data set on human skin explants (injected alone, no TGF-β, rE 1, 5, 10 μg/ml, peptides 10 μg/ml) was “tendency towards reduction”. Moreover, the “development of fibrosis as measured by dermal thickness” value in the data set on human skin explants (peptides 10 μg/ml with 10 ng/ml TGF-β, vs TGF-β alone) was “significantly abolished”. For the same substance, the skin thickness result in data set [1] is reported as “significantly decreased skin”. For the same substance, the “TGF-β-induced dermal fibrosis (dermal thickness)” value in [2] is given as “prevented”.
With Endostatin, in data set [3], the “FN and Col1α1 protein levels” value is recorded as “endostatin markedly reduced”. In addition, the injury parameters entry (in data set [4]; in the data set with rabbit ear scar model; in the data set with liver fibrosis model; with IPF model) was “reversed injury parameters” throughout. The tolerability entry in data set [5] was “well tolerated”.
